The text below walks through data of ChEMBL document CHEMBL1833847, “Identification of potent c-Src inhibitors strongly affecting the proliferation of human neuroblastoma cells” (Bioorg Med Chem Lett, 2011).

pIC50, pKi: −log10 of the molar value. Converted amounts (≈) assume the structure as drawn. The source made the active and inactive calls. No cut-off for these calls is given here. Bounds are passed on as bounds.

For series [1], the target named is T1, Tyrosine-protein kinase ABL1 (Homo sapiens, UniProt P00519). As to the kind of experiment: Inhibition human recombinant Abl using Abtide peptide substrate at 100 uM in presence of [gamma-32P]-ATP.
Series [2] relates to SH-SY5Y. Kind of series: cells. The settings on record: Homo sapiens, 72 h.
Series [3] concerns the target Proto-oncogene tyrosine-protein kinase Src (Homo sapiens, UniProt P12931). Kind of series: Inhibition human recombinant cSRC using KVEKIGEGTYGVVYK peptide substrate in presence of [gamma-32P]-ATP.
The target of series [4] is Tyrosine-protein kinase HCK (Homo sapiens, UniProt P08631). Kind of series: Inhibition human recombinant HcK using KVEKIGEGTYGVVYK peptide substrate in presence of [gamma-32P]-ATP.
Series [5] addresses Serine/threonine-protein kinase pim-1 (Homo sapiens, UniProt P11309). Kind of series: Inhibition human recombinant Pim1 using KKRNRLTLTV peptide substrate in presence of [gamma-32P]-ATP.
Series [6] concerns SH-SY5Y. As to the kind of experiment: Antiproliferative activity against human SH-SY5Y cells assessed as cell viability at 0.01 to 10 uM by XTT assay. The settings on record: TDE = time-dependent effect. Format: functional, cell-based. Background: Tetrazolium dyes change colour on reduction, which living cells bring about.
Another series deals with HS27. As to the kind of experiment: Antiproliferative activity against human HS27 cells assessed as retardation in proliferation rate at 10 uM after 72 hrs by XTT assay. Type of series: cell-based. Particulars: hs27, 72 h.
Series [7] in a line: Permeability of the compound at pH 7.4 after 5 hrs using porcine polar brain lipid by PAMPA-BBB assay. Type of series: ADME. The settings on record: pig; for Papp at 5 h: PAMPA, pH 7.4, read-out: permeability. For orientation: The PAMPA barrier holds no transporters, so it reflects passive diffusion.
Series [8] is described as follows: Metabolic stability in human liver microsomes at 50 uM at pH 7.4 using NADPH by LC-UV-MS method. Format: ADME, Microsome. Particulars: read-out: Stability. In general terms: Microsomes from liver hold many membrane-bound enzymes, among them those of drug oxidation.
The target of the next series is Focal adhesion kinase 1 (Homo sapiens, UniProt Q05397).
In series [9] the target is T2, Receptor-type tyrosine-protein kinase FLT3 (Homo sapiens, UniProt P36888).
T2 sequence (P36888 whole entry): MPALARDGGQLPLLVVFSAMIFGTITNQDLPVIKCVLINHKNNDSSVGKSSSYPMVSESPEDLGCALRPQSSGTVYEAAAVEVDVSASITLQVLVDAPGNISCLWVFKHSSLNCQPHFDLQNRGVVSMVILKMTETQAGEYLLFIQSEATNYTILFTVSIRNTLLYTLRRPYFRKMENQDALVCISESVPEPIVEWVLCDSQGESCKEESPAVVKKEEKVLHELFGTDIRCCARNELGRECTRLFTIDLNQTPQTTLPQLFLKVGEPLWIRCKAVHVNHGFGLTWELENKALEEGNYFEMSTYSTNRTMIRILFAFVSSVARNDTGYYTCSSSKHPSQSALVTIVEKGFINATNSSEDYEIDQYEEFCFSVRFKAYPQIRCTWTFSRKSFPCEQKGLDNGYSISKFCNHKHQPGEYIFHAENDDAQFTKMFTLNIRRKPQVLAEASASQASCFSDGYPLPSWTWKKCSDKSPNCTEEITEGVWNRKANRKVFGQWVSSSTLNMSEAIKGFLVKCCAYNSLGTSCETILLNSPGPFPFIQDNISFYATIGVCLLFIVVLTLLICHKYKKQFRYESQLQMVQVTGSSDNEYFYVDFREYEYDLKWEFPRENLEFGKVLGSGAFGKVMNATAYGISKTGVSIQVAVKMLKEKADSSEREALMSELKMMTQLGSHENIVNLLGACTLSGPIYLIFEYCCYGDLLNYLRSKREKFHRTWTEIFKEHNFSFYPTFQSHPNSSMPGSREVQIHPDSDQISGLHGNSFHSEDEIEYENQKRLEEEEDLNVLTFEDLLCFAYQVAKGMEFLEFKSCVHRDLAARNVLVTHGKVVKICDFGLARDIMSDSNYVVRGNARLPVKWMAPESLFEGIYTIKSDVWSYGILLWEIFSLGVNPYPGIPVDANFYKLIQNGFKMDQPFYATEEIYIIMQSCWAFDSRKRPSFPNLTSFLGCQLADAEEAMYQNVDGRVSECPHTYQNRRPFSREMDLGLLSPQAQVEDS
Description: Inhibition human recombinant FLT3 using Poly(Ala,Glu,Lys,Tyr)peptide substrate in presence of [gamma-32P]-ATP

Series [10] is described as follows: Aqueous solubility of the compound after 24 to 36 hrs by LC-MS-MS assay. Type of series: physicochemical. The settings on record: buffer.
The subject of series [11] is SH-SY5Y. Kind of series: Antiproliferative activity against human SH-SY5Y cells assessed as cell viability after 72 hrs by XTT assay.
Series [12] addresses T1, Tyrosine-protein kinase ABL1.
Description: Inhibition human recombinant Abl using Abtide peptide substrate in presence of [gamma-32P]-ATP
Series [13] relates to SH-SY5Y. Kind of series: Antiproliferative activity against human SH-SY5Y cells assessed as growth reduction at 10 uM after 72 hrs. Format: functional. Further details: scale not given: the % may be the effect or the level left.

Description for Focal adhesion kinase 1: Inhibition human recombinant FAK using Poly(Glu,Tyr) substrate in presence of [gamma-32P]-ATP

As to `Clc1cccc(Nc2ncnc3c2cnn3CCc2ccccc2)c1`, the inhibition result in [1] is “inactive”.
Compound `CC(C)(C)n1nc(-c2ccc(Cl)cc2)c2c(N)ncnc21` had a pIC50 with SH-SY5Y [2] of 5.21.
In the case of `CC(Cn1ncc2c(NCc3ccc(F)cc3)ncnc21)c1ccccc1` (centres undefined), in series [1], the inhibition result is “inactive”.
For `CSc1nc(Nc2cccc(Cl)c2)c2cnn(CCc3ccccc3)c2n1`, the values for the pKi in series [3], in series [4] and in series [5] were 7.05, 5.76 and 5.19, respectively. Also, the inhibition result in [1] is “inactive”. In addition, the Activity result in the series on SH-SY5Y [6] is “tde”; in the series with HS27, “Toxic”. In series [7], the Papp at 5 h came to 3.43 ×10⁻⁶ cm/s. For the same compound, in series [8], the remaining at 50 µM came to 99%.
With `CSc1nc(NCc2ccccc2)c2cnn(CC(C)c3ccccc3)c2n1` (centres undefined), in series [1], the inhibition result was “inactive”.
Take `CC(Cn1ncc2c(Nc3cccc(Cl)c3)ncnc21)c1ccccc1` (centres undefined): the inhibition result in [1] was “inactive”.
For `CSc1nc(Nc2ccccc2)c2cnn(CC(C)c3ccccc3)c2n1` (centres undefined), the pKi was 7.60 in series [3], 5.41 in series [4] and 4.94 in [5]. Also, the inhibition entry in series [1] was “inactive”. The values for the Activity result with SH-SY5Y [6] and in the series with HS27 were “tde” and “Toxic”, respectively. Moreover, the Ki result (at Focal adhesion kinase 1; in [9]) was “Not Active” in each case. Besides, the pIC50 in the series with SH-SY5Y [2] was 6.14.
Take `CSc1nc(Nc2cccc(Br)c2)c2cnn(CC(C)c3ccccc3)c2n1` (centres undefined): the Activity entry with SH-SY5Y [6] was “tde”; in the series on HS27, “Toxic”; with SH-SY5Y [11], “Dose-dependent effect”. The compound also returned a permeability in series [7] (pampa, pH 7.4, 5 h) of 1.48 ×10⁻⁶ cm/s. Besides, the solubility in series [10] was less than 0.01 µg/mL. Further, in [8], the remaining at 50 µM turned out to be 95%. Moreover, the negative logarithm of the IC50 (pIC50) with SH-SY5Y [2] was 6.10.
Take `CC(Cn1ncc2c(NCc3cccc(F)c3)ncnc21)c1ccccc1` (centres undefined): the inhibition entry in series [1] is “inactive”.
On to `CC(Cn1ncc2c(NCc3ccccc3F)ncnc21)c1ccccc1` (centres undefined), for which, in [1], the inhibition result is “inactive”.
As to `ClC(Cn1ncc2c(NCc3ccccc3)ncnc21)c1ccccc1` (centres undefined), the pKi in series [3] is 5.52; in series [12], 6.43.
In the case of `CSc1nc(Nc2cccc(Cl)c2)c2cnn(CC(Cl)c3ccccc3)c2n1` (centres undefined), the Activity in the series with SH-SY5Y [13] is given as 75%. Besides, in series [3], the pKi was 6.15. Further, the Papp at 5 h in [7] stood at 5.66 ×10⁻⁶ cm/s. The compound further gave a solubility in series [10] of 0.046 µg/mL (≈ 0.107 µM). Further, the remaining at 50 µM in series [8] was determined as 91%.
As for `CSc1nc(Nc2cccc(Cl)c2)c2cnn(CC(C)c3ccccc3)c2n1` (centres undefined), the values for the pKi in series [3], in series [4] and in [5] were 7.60, 5.30 and 5.18, respectively. Further, the inhibition result in [1] is “inactive”. The results for the Activity result in the series with SH-SY5Y [6], in the series with HS27 and in the series with SH-SY5Y [11] were “tde”, “Toxic” and “Dose-dependent effect”, respectively. The Ki result (on Focal adhesion kinase 1; in series [9]) was “Not Active” in each case. This compound also had a pIC50 in the series on SH-SY5Y [2] of 6.48.
On to `CC(Cn1ncc2c(NCc3ccccc3)ncnc21)c1ccccc1` (centres undefined), for which the inhibition entry in series [1] is “inactive”.

As a reminder, the pIC50 is the IC50 on a negative log10 scale, so that one unit is a factor of ten. As a reminder, the pKi is −log10 of the Ki, conventionally taken in molar units. Broadly, the solubility is how much of the substance goes into solution per volume.
